Experimental data from patent US12539289B2, “Phorbol ester compositions and methods of use for treating or reducing the duration of cytopenia” (BIOSUCCESS BIOTECH CO., LTD., priority 2014, dated 2026).

Columns and labels:
Drug Induced Cytopenia = assay: Drug induced cytopenia treated by TPA: blood cell counts after DNR + Ara-C; type: in vivo, mice; settings: for PLT / RBC / WBC: n = 10
Protocol: Ninety (90) adult mice were randomly assigned to 9 groups (10 mice per group). No drug was administered in Control group. Model group was given DNR (6 mg/kg)+Ara-C (150 mg/kg) on Day 0. The rest of the 7 groups were given DNR (6 mg/kg)+Ara-C (150 mg/kg) on Day 0, and each group on Day 7, Day 8, and Day 9 was administered with one of the following drugs: G-CSF (10 μg/kg), EPO (500 IU/kg), TPA (12.5 μg/kg), TPA (25 μg/kg), TPA (50 μg/kg), TPA (12.5 μg/kg)+GCSF (10 μg/kg), or TPA (12.5 μg/kg)+EPO (500 IU/kg).

[1] = tested on: bone marrow stromal cells (BMSCs) from patients of AML in the bone marrow suppression phase; assay: BMSC proliferation or inhibition, CCK8 method, AML patients; type: cell-based, human
Protocol: (§1) To explore the effect of TPA alone or combined rhG-CSF on bone marrow hematopoietic cells proliferation and colony formation ability which from patients of acute myeloid leukemia (AML) in the period of bone marrow suppression in vitro and to observe the effect of TPA on bone marrow stromal cells(BMSCs) proliferation or inhibition from patients of AML in the period of myelosuppression and the healthy persons.
• 1) Human bone marrow cells from the same AML patient after chemotherapy were cultured by methyl cellulose semi-solid culture medium. Groups: Blank, TPA (10 ng/ml), G-CSF (50 ng/ml), TPA (10 ng/ml)+GCSF (50 ng/ml). The experiments were repeated for 4 times. • 2) The stroma cells of bone marrow from the healthy human and the AML patient after chemotherapy were cultured by methyl cellulose semi-solid culture medium. Different TPA concentrations were added. Groups: Blank, TPA (0.1 ng/ml), TPA (1.0 ng/ml), TPA (5 ng/ml), TPA (10 ng/ml), TPA (20 ng/ml), TPA (30 ng/ml). • 3) Cultivation of BMSCs from healthy persons and patients of AML in the bone marrow suppression phase in vitro, added to TPA of different concentrations, 0.1 ng/ml, 1.0 ng/ml, 5 ng/ml, 10 ng/ml, 20 ng/ml, 30 ng/ml, and set up a control to detect cell proliferation or inhibition with CCK8 method. Results and Conclusion: • 1. […]

[2] = tested on: post-chemotherapy neutropenia; settings: cited from earlier work
[3] = tested on: Human bone marrow cells from the same AML patient after chemotherapy; assay: Colony formation of bone marrow hematopoietic cells in methyl cellulose semi-solid culture medium; type: cell-based
Protocol: as §1
• 1) Human bone marrow cells from the same AML patient after chemotherapy were cultured by methyl cellulose semi-solid culture medium. Groups: Blank, TPA (10 ng/ml), G-CSF (50 ng/ml), TPA (10 ng/ml)+GCSF (50 ng/ml). The experiments were repeated for 4 times. • 2) The stroma cells of bone marrow from the healthy human and the AML patient after chemotherapy were cultured by methyl cellulose semi-solid culture medium. Different TPA concentrations were added. Groups: Blank, TPA (0.1 ng/ml), TPA (1.0 ng/ml), TPA (5 ng/ml), TPA (10 ng/ml), TPA (20 ng/ml), TPA (30 ng/ml). • 3) Cultivation of BMSCs from healthy persons and patients of AML in the bone marrow suppression phase in vitro, added to TPA of different concentrations, 0.1 ng/ml, 1.0 ng/ml, 5 ng/ml, 10 ng/ml, 20 ng/ml, 30 ng/ml, and set up a control to detect cell proliferation or inhibition with CCK8 method. Results and Conclusion: • 1. Compared the clones of four groups in incomplete medium, in the control group a small cell clusters can be seen for 24-72 hours, but the cells were dead as time prolong. Cultivated 14 days, control group have no clones formation, CFU-GM are dominated for G-CSF group, TPA alone and combination with G-CSF group have myeloid colony formation, while BFU-E and CFU-GEMM. […] Compared the clones of different concentration of TPA stimulation in incomplete medium, the total clones of 5 ng/ml, 10 ng/ml, 20 ng/ml group are higher than other groups, including 10 ng/ml in the highest, there are statistical significance (both P<0.05). While decreasing or increasing TPA concentration can not improve the colony number. The better concentration of TPA to stimulate the colony formation is 5˜20 ng/ml. […] Compared the clones of different concentration of TPA and G-CSF (50 ng/ml) stimulation in incomplete medium. Combination with G-CSF the better concentration of TPA is 1˜10 ng/ml (both P<0.05). Combination with G-CSF the best concentration of TPA is 5 ng/ml and 1 ng/ml. for CFU-GM and CFU-GEMM. The main clone types are myeloid colones, CFU-GM, also have CFU-GEMM and fewer BFU-E. • 4. […] While TPA group and G-CSF group the number of clones of TPA group and G-CSF group have no statistical significance (P=0.577). • 5. […] Meanwhile, TPA promote bone marroe stromal cells from the AML patients proliferation of concentration 5˜30 ng/ml (cell number 2×10^5/ml). 5 ng/ml of TPA is the best concentration of promoting proliferation, and G-CSF had no effect on the growth of BMSCs from healthy persons or AML patients.

[4] = 8 days after DNR + Ara-c, 1 day after 1st dose, G-CSF 10, EPO 500, TPA 12.5, TPA + GCSF 12.5 + 10, TPA + EPO 12.5 + 500 (μg·kg^−1)
[5] = 8 days after DNR + Ara-c, 1 day after 1st dose, TPA 25 μg·kg^−1
[6] = 8 days after DNR + Ara-c, 1 day after 1st dose, TPA 50 μg·kg^−1
[7] = 9 days after DNR + Ara-c, 1 day after 2nd dose, G-CSF 10, EPO 500, TPA 12.5, TPA + GCSF 12.5 + 10, TPA + EPO 12.5 + 500 (μg·kg^−1)
[8] = 9 days after DNR + Ara-c, 1 day after 2nd dose, TPA 25 μg·kg^−1
[9] = 9 days after DNR + Ara-c, 1 day after 2nd dose, TPA 50 μg·kg^−1
[10] = 10 days after DNR + Ara-c, 1 day after 3rd dose, G-CSF 10, EPO 500, TPA 12.5, TPA + GCSF 12.5 + 10, TPA + EPO 12.5 + 500 (μg·kg^1)
[11] = 10 days after DNR + Ara-c, 1 day after 3rd dose, TPA 25 μg·kg^1
[12] = 10 days after DNR + Ara-c, 1 day after 3rd dose, TPA 50 μg·kg^1

## CCCCCCCCCCCCCC(=O)O[C@@H]1[C@@H](C)[C@@]2(O)[C@@H](C=C(CO)C[C@]3(O)C(=O)C(C)=C[C@@H]23)[C@@H]2C(C)(C)[C@]12OC(C)=O [TPA, 12-O-tetradecanoylphorbol-13-acetate]
Drug Induced Cytopenia; [4]
  PLT: 395 ± 30.41^(1)(1)(2)(2) ×10^9/L
  RBC: 6.08 ± 0.49^(1)(1)(2)(3)(3)(4) ×10^12/L
  WBC: 6.4 ± 0.62^(2)(2) ×10^9/L
Drug Induced Cytopenia; [5]
  PLT: 391 ± 20.42^(1)(1)(2)(2) ×10^9/L
  RBC: 7.09 ± 0.23^(1)(1)(2)(2)(3)(3)(5) ×10^12/L
  WBC: 6.4 ± 0.35^(2)(2) ×10^9/L
Drug Induced Cytopenia; [6]
  PLT: 413 ± 9.64^(1)(1)(2)(2) ×10^9/L
  RBC: 7.10 ± 0.24^(1)(1)(2)(2)(3)(3)(5) ×10^12/L
  WBC: 6.5 ± 0.75^(2)(2) ×10^9/L
Drug Induced Cytopenia; [7]
  PLT: 965 ± 76.23^(1)(1)(2)(2) ×10^9/L
  RBC: 7.47 ± 0.55^(1)(1)(2)(2)(3)(3) ×10^12/L
  WBC: 6.84 ± 0.44^(2) ×10^9/L
Drug Induced Cytopenia; [8]
  PLT: 951 ± 70.29^(1)(1)(2)(2) ×10^9/L
  RBC: 7.34 ± 0.87^(1)(1)(2)(2)(3)(3) ×10^12/L
  WBC: 6.72 ± 0.50^(2) ×10^9/L
Drug Induced Cytopenia; [9]
  PLT: 999 ± 45.67^(1)(1)(2)(2) ×10^9/L
  RBC: 7.30 ± 0.49^(1)(1)(2)(2)(3)(3) ×10^12/L
  WBC: 6.86 ± 0.39^(2) ×10^9/L
Drug Induced Cytopenia; [10]
  PLT: 1447 ± 78.09^(2)(2) ×10^9/L
  RBC: 7.59 ± 0.67^(1)(1)(2)(2)(3)(3) ×10^12/L
  WBC: 9.51 ± 0.85^(1)(1)(2)(2)(4)(4) ×10^9/L
Drug Induced Cytopenia; [11]
  PLT: 1465 ± 72.81^(2)(2) ×10^9/L
  RBC: 8.26 ± 0.63^(1)(1)(2)(2)(3)(3)(5) ×10^12/L
  WBC: 9.69 ± 0.85^(1)(1)(2)(2)(4)(4) ×10^9/L
Drug Induced Cytopenia; [12]
  RBC: 8.18 ± 0.55^(1)(1)(2)(2)(3)(3)(5) ×10^12/L
  WBC: 9.90 ± 0.64^(1)(1)(2)(2)(4)(4) ×10^9/L
Drug Induced Cytopenia; 10 days after DNR + Ara-c, 1 day after 3rd dose, TPA 50 μg·kg^−1
  PLT: 1463 ± 80.33^(2)(2) ×10^9/L
Drug Induced Cytopenia; conclusion of Example 6
  production of WBC, RBC, and platelet: promoted the production of WBC, RBC, and platelet
[1]
  best concentration of promoting proliferation of BMSCs: 5 ng/mL
[2]; acute myelocytic leukemia (AML) patients
  duration of post-chemotherapy neutropenia: capable of shortening the duration of post-chemotherapy neutropenia
[2]; recommended Phase 2 dose 0.125 mg/m^2 daily up to 5 days a week×2 weeks
  tolerability: well tolerated with only minor adverse events
[3]; TPA alone, incomplete medium
  best concentration for hematopoietic cell clone formation (highest total clones): 10 ng/mL
[3]; bone marrow of AML patients in the period of bone marrow suppression, in vitro
  colony types whose formation is promoted (CFU-GM, CFU-GEMM, BFU-E): promoted the formation of CFU-GM, CFU-GEMM, and BFU-E
[3]; incomplete medium, cultivated 14 days, TPA 10 ng/ml, G-CSF 50 ng/ml
  total number of clones: higher than G-CSF group
